Bridge positions count the residues as written; N and C are the ends. Square brackets hold non-standard residues; d marks the D form. Peptide text beside a SMILES is read from it. 1Nal = N[C@@H](Cc1cccc2ccccc12)C(=O)O
Key:
[1] = molecular target: T1, human Kv1.3 (CHO) (Homo sapiens, UniProt P22001); test: cell-based
T1 construct: expressed in transfected cells; host or cells: CHO

[2] = molecular target: T2, human Kv1.1 (HEK293) (Homo sapiens, UniProt Q09470); test: cell-based
T2 construct: expressed in transfected cells; host or cells: HEK293
T2 sequence (Q09470 whole entry): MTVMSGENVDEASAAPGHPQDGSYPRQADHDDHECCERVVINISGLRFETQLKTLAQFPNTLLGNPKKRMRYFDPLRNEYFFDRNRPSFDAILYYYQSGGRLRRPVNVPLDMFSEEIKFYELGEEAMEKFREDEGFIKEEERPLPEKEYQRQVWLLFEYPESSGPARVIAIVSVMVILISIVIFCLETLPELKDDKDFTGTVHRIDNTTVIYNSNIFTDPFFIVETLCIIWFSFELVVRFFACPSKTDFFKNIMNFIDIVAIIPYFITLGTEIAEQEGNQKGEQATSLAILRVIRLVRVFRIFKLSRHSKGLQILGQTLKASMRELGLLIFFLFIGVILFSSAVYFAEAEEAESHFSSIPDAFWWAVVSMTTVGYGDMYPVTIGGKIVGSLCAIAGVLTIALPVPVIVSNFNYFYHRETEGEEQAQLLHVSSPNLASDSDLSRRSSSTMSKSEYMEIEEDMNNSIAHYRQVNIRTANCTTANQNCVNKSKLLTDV

T1 sequence (P22001 whole entry): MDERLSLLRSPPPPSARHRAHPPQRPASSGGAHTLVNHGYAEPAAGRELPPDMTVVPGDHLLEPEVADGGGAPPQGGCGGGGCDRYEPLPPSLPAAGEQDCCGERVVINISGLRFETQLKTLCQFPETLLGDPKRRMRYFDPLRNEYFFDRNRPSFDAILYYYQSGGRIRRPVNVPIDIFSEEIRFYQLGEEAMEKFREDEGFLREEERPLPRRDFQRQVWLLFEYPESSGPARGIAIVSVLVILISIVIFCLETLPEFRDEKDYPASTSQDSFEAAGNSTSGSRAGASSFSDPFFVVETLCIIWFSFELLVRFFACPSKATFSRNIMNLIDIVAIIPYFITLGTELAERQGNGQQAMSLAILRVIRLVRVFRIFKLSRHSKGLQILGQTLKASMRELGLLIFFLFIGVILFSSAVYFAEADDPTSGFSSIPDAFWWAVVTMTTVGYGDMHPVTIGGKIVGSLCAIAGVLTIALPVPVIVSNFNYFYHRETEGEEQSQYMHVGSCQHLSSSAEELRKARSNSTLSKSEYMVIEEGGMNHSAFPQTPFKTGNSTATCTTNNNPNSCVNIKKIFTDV

Row | SMILES | IC50 [1] [nM] | IC50 [2] [nM]
1 | CC[C@H](C)[C@@H]1NC(=O)[C@H](CCCCN)NC(=O)[C@@H](NC(=O)[C@H](CCCCN)NC(=O)[C@@H](NC(=O)[C@H](CC(N)=O)NC(=O)[C@@H](NC(=O)[C@@H](NC(=O)[C@@H](NC(=O)CN)C(C)C)[C@@H](C)CC)[C@@H](C)CC)C(C)C)CSSC[C@@H]2NC(=O)[C@H](CCCCN)NC(=O)CNC(=O)[C@H](Cc3ccccc3)NC(=O)[C@H](CCCNC(=N)N)NC(=O)[C@H](CCSC)NC(=O)CNC(=O)[C@H](C)NC(=O)[C@H](CCCCN)NC(=O)[C@H](CCCCN)NC(=O)[C@@H]3CSSC[C@@H](C(=O)N[C@H](C(=O)N4CCC[C@H]4C(=O)N[C@@H](CCCCN)C(=O)O)[C@@H](C)O)NC(=O)[C@H](Cc4c[nH]cn4)NC(=O)[C@H](CSSC[C@H](NC(=O)[C@H](CCC(N)=O)NC(=O)[C@H](CCCNC(=N)N)NC(=O)[C@H](CO)NC1=O)C(=O)N[C@@H](CC(C)C)C(=O)N[C@@H](CCC(=O)O)C(=O)N[C@@H](CCC(=O)O)C(=O)N3)NC(=O)[C@H](CCCCN)NC(=O)CNC(=O)[C@H](CC(N)=O)NC(=O)[C@H](CCSC)NC2=O [P17E] (H-GVIINVKCKISRQCLEECKKAGMRFGKCMNGKCHCTPK-OH; disulfide 8-28, 14-33, 18-35) | 0.0145 | 0.00181
2 | CC[C@H](C)[C@@H]1NC(=O)[C@H](CCCCN)NC(=O)[C@@H](NC(=O)[C@H](CCCCN)NC(=O)[C@@H](NC(=O)[C@H](CC(N)=O)NC(=O)[C@@H](NC(=O)[C@@H](NC(=O)[C@@H](NC(=O)CN)C(C)C)[C@@H](C)CC)[C@@H](C)CC)C(C)C)CSSC[C@@H]2NC(=O)[C@H](CCCCN)NC(=O)CNC(=O)[C@H](Cc3ccccc3)NC(=O)[C@H](CCCNC(=N)N)NC(=O)[C@H](CCSC)NC(=O)[C@H](CCC(=O)O)NC(=O)[C@H](C)NC(=O)[C@H](CCCCN)NC(=O)[C@H](CCCCN)NC(=O)[C@@H]3CSSC[C@@H](C(=O)N[C@H](C(=O)N4CCC[C@H]4C(=O)N[C@@H](CCCCN)C(=O)O)[C@@H](C)O)NC(=O)[C@H](Cc4c[nH]cn4)NC(=O)[C@H](CSSC[C@H](NC(=O)[C@H](CCC(N)=O)NC(=O)[C@H](CCCNC(=N)N)NC(=O)[C@H](CO)NC1=O)C(=O)N[C@@H](CC(C)C)C(=O)N[C@@H](CCC(=O)O)C(=O)N1CCC[C@H]1C(=O)N3)NC(=O)[C@H](CCCCN)NC(=O)CNC(=O)[C@H](CC(N)=O)NC(=O)[C@H](CCSC)NC2=O [G22E] (H-GVIINVKCKISRQCLEPCKKAEMRFGKCMNGKCHCTPK-OH; disulfide 8-28, 14-33, 18-35) | 0.0139 | 0.00256
3 | CC[C@H](C)[C@@H]1NC(=O)[C@H](CCCCN)NC(=O)[C@@H](NC(=O)[C@H](CCCCN)NC(=O)[C@@H](NC(=O)[C@H](CC(N)=O)NC(=O)[C@H](Cc2cccc3ccccc23)NC(=O)[C@@H](NC(=O)[C@@H](NC(=O)CN)C(C)C)[C@@H](C)CC)C(C)C)CSSC[C@@H]2NC(=O)[C@H](CCCCN)NC(=O)CNC(=O)[C@H](Cc3ccccc3)NC(=O)[C@H](CCCNC(=N)N)NC(=O)[C@H](CCSC)NC(=O)CNC(=O)[C@H](C)NC(=O)[C@H](CCCCN)NC(=O)[C@H](CCCCN)NC(=O)[C@@H]3CSSC[C@@H](C(=O)N[C@H](C(=O)N4CCC[C@H]4C(=O)N[C@@H](CCCCN)C(=O)O)[C@@H](C)O)NC(=O)[C@H](Cc4c[nH]cn4)NC(=O)[C@H](CSSC[C@H](NC(=O)[C@H](CCC(N)=O)NC(=O)[C@H](CCCNC(=N)N)NC(=O)[C@H](CO)NC1=O)C(=O)N[C@@H](CC(C)C)C(=O)N[C@@H](CCC(=O)O)C(=O)N1CCC[C@H]1C(=O)N3)NC(=O)[C@H](CCCCN)NC(=O)CNC(=O)[C@H](CC(N)=O)NC(=O)[C@H](CCSC)NC2=O [I4Nal] (H-GVI[1Nal]NVKCKISRQCLEPCKKAGMRFGKCMNGKCHCTPK-OH; disulfide 8-28, 14-33, 18-35) | 0.015 | < 0.00152
4 | CC[C@H](C)[C@@H]1NC(=O)[C@H](CCCCN)NC(=O)[C@@H](NC(=O)[C@H](CCCCN)NC(=O)[C@@H](NC(=O)[C@H](CC(N)=O)NC(=O)[C@@H](NC(=O)[C@@H](NC(=O)[C@@H](NC(=O)CN)C(C)C)[C@@H](C)CC)[C@@H](C)CC)C(C)C)CSSC[C@@H]2NC(=O)[C@H](CCCNC(=N)N)NC(=O)CNC(=O)[C@H](Cc3ccccc3)NC(=O)[C@H](CCCNC(=N)N)NC(=O)[C@H](CCSC)NC(=O)CNC(=O)[C@H](C)NC(=O)[C@H](CCCCN)NC(=O)[C@H](CCCCN)NC(=O)[C@@H]3CSSC[C@@H](C(=O)N[C@H](C(=O)N4CCC[C@H]4C(=O)N[C@@H](CCCCN)C(=O)O)[C@@H](C)O)NC(=O)[C@H](Cc4c[nH]cn4)NC(=O)[C@H](CSSC[C@H](NC(=O)[C@H](CCC(N)=O)NC(=O)[C@H](CCCNC(=N)N)NC(=O)[C@H](CO)NC1=O)C(=O)N[C@@H](CC(C)C)C(=O)N[C@@H](CCC(=O)O)C(=O)N1CCC[C@H]1C(=O)N3)NC(=O)[C@H](CCCCN)NC(=O)CNC(=O)[C@H](CC(N)=O)NC(=O)[C@H](CCSC)NC2=O [K27R] (H-GVIINVKCKISRQCLEPCKKAGMRFGRCMNGKCHCTPK-OH; disulfide 8-28, 14-33, 18-35) | 1.49 | > 3.33
5 | CC[C@H](C)[C@@H]1NC(=O)[C@H](CCCCN)NC(=O)[C@@H](NC(=O)[C@H](CCCCN)NC(=O)[C@@H](NC(=O)[C@H](CC(N)=O)NC(=O)[C@@H](NC(=O)[C@@H](NC(=O)[C@@H](NC(=O)[C@@H](N)CCC(=O)O)C(C)C)[C@@H](C)CC)[C@@H](C)CC)C(C)C)CSSC[C@@H]2NC(=O)[C@H](CCCCN)NC(=O)CNC(=O)[C@H](Cc3ccccc3)NC(=O)[C@H](CCCNC(=N)N)NC(=O)[C@H](CCSC)NC(=O)CNC(=O)[C@H](C)NC(=O)[C@H](CCCCN)NC(=O)[C@H](CCCCN)NC(=O)[C@@H]3CSSC[C@@H](C(=O)N[C@H](C(=O)N4CCC[C@H]4C(=O)N[C@@H](CCCCN)C(=O)O)[C@@H](C)O)NC(=O)[C@H](Cc4c[nH]cn4)NC(=O)[C@H](CSSC[C@H](NC(=O)[C@H](CCC(N)=O)NC(=O)[C@H](CCCNC(=N)N)NC(=O)[C@H](CO)NC1=O)C(=O)N[C@@H](CC(C)C)C(=O)N[C@@H](CCC(=O)O)C(=O)N1CCC[C@H]1C(=O)N3)NC(=O)[C@H](CCCCN)NC(=O)CNC(=O)[C@H](CC(N)=O)NC(=O)[C@H](CCSC)NC2=O [G1E] (H-EVIINVKCKISRQCLEPCKKAGMRFGKCMNGKCHCTPK-OH; disulfide 8-28, 14-33, 18-35) | 0.186 | 0.051
6 | CC[C@H](C)[C@@H]1NC(=O)[C@H](CCCCN)NC(=O)[C@@H](NC(=O)[C@H](CCCCN)NC(=O)[C@@H](NC(=O)[C@H](CC(N)=O)NC(=O)[C@@H](NC(=O)[C@@H](NC(=O)[C@@H](NC(=O)CN)C(C)C)[C@@H](C)CC)[C@@H](C)CC)C(C)C)CSSC[C@@H]2NC(=O)[C@H](CCCCN)NC(=O)CNC(=O)[C@H](Cc3ccccc3)NC(=O)[C@H](Cc3cccc4ccccc34)NC(=O)[C@H](CCSC)NC(=O)CNC(=O)[C@H](C)NC(=O)[C@H](CCCCN)NC(=O)[C@H](CCCCN)NC(=O)[C@@H]3CSSC[C@@H](C(=O)N[C@H](C(=O)N4CCC[C@H]4C(=O)N[C@@H](CCCCN)C(=O)O)[C@@H](C)O)NC(=O)[C@H](Cc4c[nH]cn4)NC(=O)[C@H](CSSC[C@H](NC(=O)[C@H](CCC(N)=O)NC(=O)[C@H](CCCNC(=N)N)NC(=O)[C@H](CO)NC1=O)C(=O)N[C@@H](CC(C)C)C(=O)N[C@@H](CCC(=O)O)C(=O)N1CCC[C@H]1C(=O)N3)NC(=O)[C@H](CCCCN)NC(=O)CNC(=O)[C@H](CC(N)=O)NC(=O)[C@H](CCSC)NC2=O [R24Nal] (H-GVIINVKCKISRQCLEPCKKAGM[1Nal]FGKCMNGKCHCTPK-OH; disulfide 8-28, 14-33, 18-35) | 0.0453 | 0.00285
7 | CC[C@H](C)[C@@H]1NC(=O)[C@H](CCCCN)NC(=O)[C@@H](NC(=O)[C@H](CCCCN)NC(=O)[C@@H](NC(=O)[C@H](CC(N)=O)NC(=O)[C@@H](NC(=O)[C@@H](NC(=O)[C@@H](NC(=O)CN)C(C)C)[C@@H](C)CC)[C@@H](C)CC)C(C)C)CSSC[C@@H]2NC(=O)[C@H](CCCCN)NC(=O)CNC(=O)[C@H](Cc3ccccc3)NC(=O)[C@H](CCCNC(=N)N)NC(=O)[C@H](CCSC)NC(=O)CNC(=O)[C@H](C)NC(=O)[C@H](CCC(=O)O)NC(=O)[C@H](CCCCN)NC(=O)[C@@H]3CSSC[C@@H](C(=O)N[C@H](C(=O)N4CCC[C@H]4C(=O)N[C@@H](CCCCN)C(=O)O)[C@@H](C)O)NC(=O)[C@H](Cc4c[nH]cn4)NC(=O)[C@H](CSSC[C@H](NC(=O)[C@H](CCC(N)=O)NC(=O)[C@H](CCCNC(=N)N)NC(=O)[C@H](CO)NC1=O)C(=O)N[C@@H](CC(C)C)C(=O)N[C@@H](CCC(=O)O)C(=O)N1CCC[C@H]1C(=O)N3)NC(=O)[C@H](CCCCN)NC(=O)CNC(=O)[C@H](CC(N)=O)NC(=O)[C@H](CCSC)NC2=O [K20E] (H-GVIINVKCKISRQCLEPCKEAGMRFGKCMNGKCHCTPK-OH; disulfide 8-28, 14-33, 18-35) | 0.0254 | 0.00576
8 | CC[C@H](C)[C@@H]1NC(=O)[C@H](CCCCN)NC(=O)[C@@H](NC(=O)[C@H](CCCCN)NC(=O)[C@@H](NC(=O)[C@H](CC(N)=O)NC(=O)[C@@H](NC(=O)[C@@H](NC(=O)[C@@H](NC(=O)[C@H](C)N)C(C)C)[C@@H](C)CC)[C@@H](C)CC)C(C)C)CSSC[C@@H]2NC(=O)[C@H](CCCCN)NC(=O)CNC(=O)[C@H](Cc3ccccc3)NC(=O)[C@H](CCCNC(=N)N)NC(=O)[C@H](CCSC)NC(=O)CNC(=O)[C@H](C)NC(=O)[C@H](CCCCN)NC(=O)[C@H](CCCCN)NC(=O)[C@@H]3CSSC[C@@H](C(=O)N[C@H](C(=O)N4CCC[C@H]4C(=O)N[C@@H](CCCCN)C(=O)O)[C@@H](C)O)NC(=O)[C@H](Cc4c[nH]cn4)NC(=O)[C@H](CSSC[C@H](NC(=O)[C@H](CCC(N)=O)NC(=O)[C@H](CCCNC(=N)N)NC(=O)[C@H](CO)NC1=O)C(=O)N[C@@H](CC(C)C)C(=O)N[C@@H](CCC(=O)O)C(=O)N1CCC[C@H]1C(=O)N3)NC(=O)[C@H](CCCCN)NC(=O)CNC(=O)[C@H](CC(N)=O)NC(=O)[C@H](CCSC)NC2=O [G1A] (H-AVIINVKCKISRQCLEPCKKAGMRFGKCMNGKCHCTPK-OH; disulfide 8-28, 14-33, 18-35) | 0.0411 | 0.0139

— patent publication US20090299044A1 (priority 2006, published 2009)
